# From US6469162B1, “Compounds with chelation affinity and selectivity for first transition series elements: use in medical therapy and diagnosis” (Concat, Ltd., priority 1995, dated 2002)
# What was measured:
# [1] = test system: mature, nonreplicating cultures of HFF (human foreskin fibroblasts); test: Toxicity toward nonproliferating mammalian cells in vitro; type: cell-based; settings: 0.3 mM, nonreplicating HFF in maintenance media, five-day period of observation
# [2] = Subacute toxicity, repeated intravenous doses to rats; type: in vivo, Sprague Dawley rats; settings: 0.05 millimoles per kg i.v. on 10 days
# Excerpt: Ten male Sprague Dawley rats 29 days old and weighing between 73.4 and 87.8 grams at the beginning of the experiment were randomized, employing the block stratification method, into two groups consisting of five rats each. On each of days 1, 2, 3, 6, 7, 8, 9, 10, 13 and 14 of the experiment one set of rats received an intravenous dose of N,N′,N″-tris(dihydroxyphosphorylmethyl)-1,4,7-triazacyclononane (Example 1 C in U.S. Pat. No. 5,236,695) equal to 0.05 millimoles per kg of initial body weight (experimental group) while the other group received an equivalent volume of normal saline solution. The weights of the animals were recorded three times per week and the animals were sacrificed on the 28th day, major organs removed and weighed and tissues removed for microscopic examination.
# [3] = Acute in vivo toxicity, single intravenous dose to mice; settings: 4.0 mM/kg single intravenous dose, survival for over 14 days
# Method: This example illustrates the low in vivo toxicity of a representative ligand administer intravenously to mice.
# This in vivo LD50 toxicity dose results in an instantaneous in vivo concentration which is orders of magnitude greater than the dose of this agent which inhibits mammalian cell replication in vitro (0.009 mM/L).
Structure (SMILES),effect on resting cells [1],"weight or rate of weight gain, experimental vs control group ([2]; injection period and two-week post-injection period)","microscopic examination of tissues, experimental vs control group ([2]; necropsy on the 28th day)","weights of major organs, experimental vs control group ([2]; sacrificed on the 28th day)",mice surviving [3]
"O=P(O)(O)CN1CCN(CP(=O)(O)O)CCN(CP(=O)(O)O)CC1 [N,N′,N″-tris(dihydroxyphosphorylmethyl)-1,4,7-triazacyclononane]",no effect,no statistically significant difference,no differences,no differences,–
"O=P(O)(O)CN1CCN(CP(=O)(O)O)CCN(CP(=O)(O)O)CC1 [N,N′,N″-tris-(dihydroxyphosphorylmethyl)-1,4,7-triazacyclononane]",–,–,–,–,Over 50%
